From ChEMBL document CHEMBL1201862, “PubChem BioAssay data set” (2004)
Calls of active or inactive are those of the source.

Assays:
[1] = molecular target: Female germline-specific tumor suppressor gld-1 (Caenorhabditis elegans, UniProt Q17339); experiment: blockers of GLD-1/TGE RNA complex formation – biochemical, fluorescence polarization, C. elegans, dose response (AID 2802);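 note: fluorescence polarization of labeled TGE RNA bound by purified gld-1 protein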
[2] = molecular target: T1, Zinc finger protein mex-5 (Caenorhabditis elegans, UniProt Q9XUB2); experiment: potency of MEX-5 RNA-binding blockers – biochemical, C. elegans, fluorescence polarization, dose response (AID 1960)
T1 sequence (Q9XUB2 whole entry): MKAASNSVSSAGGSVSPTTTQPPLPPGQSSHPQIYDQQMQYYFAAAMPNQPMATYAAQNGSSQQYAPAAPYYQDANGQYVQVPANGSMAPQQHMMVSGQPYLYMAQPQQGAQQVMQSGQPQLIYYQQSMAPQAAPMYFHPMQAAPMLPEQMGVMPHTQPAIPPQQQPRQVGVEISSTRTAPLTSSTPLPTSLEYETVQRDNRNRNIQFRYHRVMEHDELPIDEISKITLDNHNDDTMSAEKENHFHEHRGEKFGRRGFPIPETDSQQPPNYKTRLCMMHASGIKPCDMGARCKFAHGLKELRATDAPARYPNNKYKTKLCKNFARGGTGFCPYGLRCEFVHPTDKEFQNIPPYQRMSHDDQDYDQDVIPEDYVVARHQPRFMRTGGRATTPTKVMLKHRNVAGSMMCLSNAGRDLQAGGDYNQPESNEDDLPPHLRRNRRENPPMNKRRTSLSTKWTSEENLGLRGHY

[3] = molecular target: T2, Polyadenylate-binding protein 1 (Homo sapiens, UniProt P11940); experiment: MLLE binding blockers, Cy5 peptide tracer – biochemical, fluorescence polarization, Cy5-PAM2 peptide, secondary, miRNA deadenylation inhibitor project, dose response (AID 602260); assay type: functional; conditions: read-out: IC50_Mean
T2 sequence (P11940 whole entry, the tested form may be a part): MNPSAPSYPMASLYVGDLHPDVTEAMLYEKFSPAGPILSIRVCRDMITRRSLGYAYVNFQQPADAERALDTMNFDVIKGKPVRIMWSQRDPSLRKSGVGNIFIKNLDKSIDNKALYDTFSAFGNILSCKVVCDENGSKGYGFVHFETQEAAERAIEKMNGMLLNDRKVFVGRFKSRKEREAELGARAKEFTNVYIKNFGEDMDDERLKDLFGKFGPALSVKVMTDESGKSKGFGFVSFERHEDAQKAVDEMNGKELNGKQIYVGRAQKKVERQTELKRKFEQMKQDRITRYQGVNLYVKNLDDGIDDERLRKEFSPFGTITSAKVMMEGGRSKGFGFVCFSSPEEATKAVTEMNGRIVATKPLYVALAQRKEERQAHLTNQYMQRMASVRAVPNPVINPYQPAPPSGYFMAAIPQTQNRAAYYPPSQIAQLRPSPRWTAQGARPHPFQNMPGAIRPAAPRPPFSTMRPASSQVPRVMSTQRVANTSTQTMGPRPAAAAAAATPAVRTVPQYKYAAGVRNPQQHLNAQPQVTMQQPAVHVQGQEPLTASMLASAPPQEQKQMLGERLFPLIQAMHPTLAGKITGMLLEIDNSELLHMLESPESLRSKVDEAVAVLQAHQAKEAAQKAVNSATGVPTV

[4] = molecular target: T2, Polyadenylate-binding protein 1; experiment: MLLE domain peptide-binding blockers, IC50 – biochemical, fluorescence polarization, FITC-PAM2 peptide, dose response (AID 602259); assay type: functional; conditions: read-out: IC50_Mean
Protein Rev = Protein Rev (Human immunodeficiency virus type 1 group M subtype B (isolate HXB2)(HIV-1), UniProt P04618); experiment: blockers of HIV Rev/RRE RNA complex – biochemical, fluorescence polarization, HIV-1, dose response (AID 434976); design: species or system Human immunodeficiency virus 1
Sequence of Protein Rev (P04618 whole entry, the tested form may be a part): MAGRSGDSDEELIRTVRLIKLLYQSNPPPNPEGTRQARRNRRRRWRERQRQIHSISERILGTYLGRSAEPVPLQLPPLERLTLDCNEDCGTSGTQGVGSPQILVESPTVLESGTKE

[5] = molecular target: T3, RNA-binding protein pos-1 (Caenorhabditis elegans, UniProt G5EF15); experiment: disruptors of C. elegans POS-1 RNA interaction – biochemical, fluorescence polarization, dose response (AID 1964);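 note: purified POS-1 fused to maltose binding protein made in E. coli; potency of compounds blocking POS-1 binding to fluorescent RNA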
T3 sequence (G5EF15 whole entry): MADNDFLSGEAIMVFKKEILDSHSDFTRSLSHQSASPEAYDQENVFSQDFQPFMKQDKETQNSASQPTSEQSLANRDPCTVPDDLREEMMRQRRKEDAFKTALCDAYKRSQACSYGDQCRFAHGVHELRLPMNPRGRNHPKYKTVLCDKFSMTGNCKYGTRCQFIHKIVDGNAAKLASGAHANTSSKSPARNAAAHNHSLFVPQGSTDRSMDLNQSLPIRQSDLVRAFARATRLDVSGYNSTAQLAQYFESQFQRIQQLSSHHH

[6] = molecular target: T4, DNA dC->dU-editing enzyme APOBEC-3G (Homo sapiens, UniProt Q9HC16); experiment: Dose Response confirmation of small molecule APOBEC3G DNA Deaminase Inhibitors via a fluorescence-based single-stranded DNA deaminase assay. [Related pubchem assays (depositor defined):AID493012, AID493028]; assay type: functional
T4 sequence (Q9HC16 whole entry): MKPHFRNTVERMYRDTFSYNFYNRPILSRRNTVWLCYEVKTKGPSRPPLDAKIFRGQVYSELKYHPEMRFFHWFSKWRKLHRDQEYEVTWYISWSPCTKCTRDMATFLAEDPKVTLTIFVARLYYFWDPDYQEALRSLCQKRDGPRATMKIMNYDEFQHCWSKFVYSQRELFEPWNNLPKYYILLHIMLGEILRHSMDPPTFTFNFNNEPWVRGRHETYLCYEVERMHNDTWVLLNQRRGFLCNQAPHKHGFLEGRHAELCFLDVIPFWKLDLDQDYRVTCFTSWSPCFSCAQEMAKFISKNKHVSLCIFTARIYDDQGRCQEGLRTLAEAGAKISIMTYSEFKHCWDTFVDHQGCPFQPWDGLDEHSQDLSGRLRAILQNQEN

[7] = molecular target: T5, DNA dC->dU-editing enzyme APOBEC-3A (Homo sapiens, UniProt P31941); experiment: A3A deaminase inhibition for selectivity – biochemical, dose response (AID 504722); assay type: functional
T5 sequence (P31941 whole entry): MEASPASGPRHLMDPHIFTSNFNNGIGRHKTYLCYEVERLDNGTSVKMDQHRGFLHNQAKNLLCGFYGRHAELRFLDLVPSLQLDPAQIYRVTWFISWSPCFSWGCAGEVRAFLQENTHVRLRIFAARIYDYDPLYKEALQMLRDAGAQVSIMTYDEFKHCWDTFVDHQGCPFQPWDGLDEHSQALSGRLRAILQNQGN

[8] = Vero E6 cell cytotoxicity, dose response, cytotoxicity control for non-replicating M. tuberculosis project, secondary assay (AID 492998); assay type: functional, VeroE6; conditions: Vero C1008
cells [9] = assay type: functional
[10] = bead-based luminescence quenchers, dual-tagged ARNT – biochemical, AlphaScreen, cherry-pick, artefact control for ARNT-TACC3 interaction inhibitor project, dose response (AID 651705); assay type: functional;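 note: AlphaScreen bead proximity signal that flags compounds interfering with the detection technology; potency reflects signal decrease which marks the compound as an assay artifact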
Nonstructural protein 1 = Nonstructural protein 1 (Influenza A virus, UniProt Q194T2); assay type: functional, Influenza A virus (A/California/07/2009(H1N1))
Sequence of Nonstructural protein 1 (Q194T2 whole entry): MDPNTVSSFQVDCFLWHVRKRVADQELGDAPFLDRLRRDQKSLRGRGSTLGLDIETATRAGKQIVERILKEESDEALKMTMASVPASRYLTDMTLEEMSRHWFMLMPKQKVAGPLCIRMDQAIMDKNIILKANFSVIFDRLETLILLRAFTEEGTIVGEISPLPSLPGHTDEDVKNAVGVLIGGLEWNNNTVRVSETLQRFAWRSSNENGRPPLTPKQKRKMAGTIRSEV

[11] = THP-1 cell cytotoxicity, dose response, cytotoxicity control for non-replicating M. tuberculosis project (AID 489025); assay type: functional
[12] = microbe, parasite or virus in culture; assay type: functional; conditions: Mycobacterium tuberculosis
[13] = HepG2 cell cytotoxicity, dose response, cytotoxicity control for non-replicating M. tuberculosis project (AID 489018); assay type: functional; conditions: Mycobacterium tuberculosis
[14] = blockers of bursicon-stimulated LGR2 cAMP reporter – cell-based, HEK293, CRE-luciferase reporter, cherry pick, set 2, dose response (AID 743343); assay type: functional;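 note: transfected cells were stimulated with diluted bursicon conditioned medium after compound addition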
[15] = molecular target: T6, Nuclear receptor subfamily 0 group B member 1 (Homo sapiens, UniProt P51843); assay type: functional, cell-based;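 note: HEK293T cells transfected with SF-1 and DAX-1 plus StAR promoter luciferase reporter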
T6 sequence (P51843 whole entry): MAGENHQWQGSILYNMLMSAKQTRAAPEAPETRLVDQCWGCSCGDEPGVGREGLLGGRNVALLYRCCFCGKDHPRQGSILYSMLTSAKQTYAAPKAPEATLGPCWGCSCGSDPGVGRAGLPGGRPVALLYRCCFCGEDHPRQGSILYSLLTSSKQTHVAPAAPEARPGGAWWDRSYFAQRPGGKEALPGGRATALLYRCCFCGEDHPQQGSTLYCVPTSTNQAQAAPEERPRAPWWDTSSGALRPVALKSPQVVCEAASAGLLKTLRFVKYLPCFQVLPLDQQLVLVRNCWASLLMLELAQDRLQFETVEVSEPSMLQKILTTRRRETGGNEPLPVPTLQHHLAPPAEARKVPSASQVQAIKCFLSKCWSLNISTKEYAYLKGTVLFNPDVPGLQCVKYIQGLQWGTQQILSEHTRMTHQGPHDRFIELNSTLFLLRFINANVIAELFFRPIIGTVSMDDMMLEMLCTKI

[16] = molecular target: T5, DNA dC->dU-editing enzyme APOBEC-3A; experiment: Dose Response confirmation of small molecule APOBEC3A DNA Deaminase Inhibitors via a fluorescence-based single-stranded DNA deaminase assay. [Related pubchem assays (depositor defined):AID493011, AID493024]; assay type: functional
[17] = molecular target: T4, DNA dC->dU-editing enzyme APOBEC-3G; assay type: functional
[18] = blockade of melanocortin 4 receptor signaling – cell-based, plate reader, cherry pick, counter-screen for LGR2 antagonist project, dose response (AID 743444); assay type: functional;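 note: transfected HEK 293 cells stimulated with alpha-MSH peptide; potency of inhibitors of the alpha-MSH evoked signal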
cells [19] = assay type: functional, cell-based
[20] = toxicity toward HepG2 liver cells – cell-based, plate reader, cherry-pick, antagonist series, cytotoxicity control, dose response (AID 743416); assay type: functional

Sequence of Female germline-specific tumor suppressor gld-1 (Q17339 whole entry): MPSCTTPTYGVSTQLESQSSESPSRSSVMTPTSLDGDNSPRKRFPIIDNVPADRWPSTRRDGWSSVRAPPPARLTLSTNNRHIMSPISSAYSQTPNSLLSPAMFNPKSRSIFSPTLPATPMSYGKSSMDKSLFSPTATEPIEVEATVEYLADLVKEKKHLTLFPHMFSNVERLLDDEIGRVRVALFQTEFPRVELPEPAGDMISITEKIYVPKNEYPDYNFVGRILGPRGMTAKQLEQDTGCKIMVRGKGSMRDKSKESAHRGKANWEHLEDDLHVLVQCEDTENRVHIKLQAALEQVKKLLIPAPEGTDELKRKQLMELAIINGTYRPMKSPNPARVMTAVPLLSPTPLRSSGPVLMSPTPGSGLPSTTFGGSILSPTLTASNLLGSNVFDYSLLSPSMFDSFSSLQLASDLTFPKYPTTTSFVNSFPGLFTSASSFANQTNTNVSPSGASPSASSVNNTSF

Structure (SMILES): COc1ccc(NC(=O)Nc2cc(C)cc(C)c2)cn1
- IC50 [1]: 7.15 µM (active)
- EC50 [2]: 27.4 µM (active)
- IC50 [3]: > 66 µM (inactive)
- IC50 [4]: 21.8 µM (inactive)
- IC50 (Protein Rev): 11.4 µM (not active)
- EC50 [5]: 186 µM (active)

Structure (SMILES): COc1ccc(OCc2nnc(S)n2Cc2ccco2)cc1
- IC50 [6]: 3.88 µM (active)
- IC50 [7]: > 100 µM (inactive)

Structure (SMILES): O=C(CCS(=O)(=O)c1ccc(F)cc1)Nc1nc(-c2ccccn2)cs1
- CC50 [8]: 12 µM (active)
- IC50 (cells [9]): 6.21 µM (active)
- AC50 [10]: 99.2 µM (active)
- IC50 (Nonstructural protein 1): 21.5 µM (active)
- CC50 [11]: 23.6 µM (active)
- CC50 [12]: 21.1 µM (active)
- CC50 [13]: > 20 µM (active)

Structure (SMILES): Fc1cccc(Cl)c1/C=N/n1c(S)nnc1-c1cccnc1
- IC50 [6]: 2.73 µM (active)
- IC50 [7]: > 100 µM (inactive)

Structure (SMILES): COc1ccc2sc(NC(=O)c3ccco3)nc2c1
- AC50 [14]: 7.49 µM (active)
- IC50 [15]: > 67.5 µM (inactive)
- IC50 [16]: 17.3 µM (active)
- IC50 [17]: 10.3 µM (active)
- AC50 [18]: 8.55 µM (active)
- IC50 (cells [19]): > 67.5 µM (inactive)
- AC50 [20]: > 52 µM (inactive)
